≈ marks a conversion by molar mass, not a printed value.
System: Mycobacterium tuberculosis
Experiment: Antituberculosis activity against Mycobacterium tuberculosis H37Rv
Type: functional

SMILES | MIC [µg/mL]
C[C@@H]1C[C@]23CC[C@@H]4[C@](C)(CCC[C@]4(C)C(=O)O)[C@H]2CC[C@@]1(OC(=O)CCCCCCCCC(=O)O)C3 | 10 (≈ 19.8 µM)
C[C@]12CC[C@H]3[C@@]4(CC[C@@H]5[C@]3(C)CCC[C@]5(C)C(=O)OCCCOC(=O)CC(=O)OCCCOC(=O)[C@]3(C)CCC[C@@]5(C)[C@@H]6CC[C@@]7(C)C[C@]6(CC[C@@H]53)C[C@H]7OC(=O)CCCCCCCCC(=O)O[C@H]1C4)C2 | 1 (≈ 1.01 µM)
C[C@@H]1C[C@]23CC[C@@H]4[C@]5(C)CCC[C@]4(C)C(=O)OCCCOC(=O)CC(=O)OCCCOC(=O)[C@]4(C)CCC[C@@]6(C)[C@@H]7CC[C@@]8(C[C@@]7(CC[C@@H]64)C[C@@H]8C)OC(=O)CCCCCCCCC(=O)O[C@]1(CC[C@@H]25)C3 | 20 (≈ 20.2 µM)
C[C@]12CC[C@H]3[C@](CC[C@@H]4[C@]3(C)CCC[C@]4(C)C(=O)O)(C[C@@H]1OC(=O)CCCCCCC(=O)O[C@@H]1C[C@]34CC[C@H]5[C@@](C)(CCC[C@@]5(C)C(=O)O)[C@@H]3CC[C@@]1(C)C4)C2 | 12.5 (≈ 16 µM)
C[C@@H]1C[C@]23CC[C@@H]4[C@](C)(CCC[C@]4(C)C(=O)O)[C@H]2CC[C@@]1(OC(=O)CC(=O)O[C@]12CC[C@@H]4[C@](CC[C@H]5[C@@]4(C)CCC[C@@]5(C)C(=O)O)(C[C@@H]1C)C2)C3 | 5 (≈ 7.05 µM)
C[C@]12CC[C@H]3[C@](CC[C@@H]4[C@]3(C)CCC[C@]4(C)C(=O)O)(C[C@@H]1OC(=O)CC(=O)O[C@@H]1C[C@]34CC[C@H]5[C@@](C)(CCC[C@@]5(C)C(=O)O)[C@@H]3CC[C@@]1(C)C4)C2 | 12.5 (≈ 17.6 µM)
C[C@]12CC[C@H]3[C@](CC[C@@H]4[C@]3(C)CCC[C@]4(C)C(=O)O)(C[C@@H]1OC(=O)CCCCCCCCC(=O)O[C@@H]1C[C@]34CC[C@H]5[C@@](C)(CCC[C@@]5(C)C(=O)O)[C@@H]3CC[C@@]1(C)C4)C2 | 12.5 (≈ 15.5 µM)
C[C@@]12CC[C@@H]3[C@@](CC[C@H]4[C@@]3(C)CCC[C@@]4(C)C(=O)O)(CC1=O)C2 [ISOSTEVIOL] | 50 (≈ 157 µM)
NNC(=O)c1ccncc1 [ISONIAZID] | 1 (≈ 7.29 µM)
C[C@H]1C[C@@]23CC[C@H]4[C@@](C)(CCC[C@@]4(C)C(=O)O)[C@@H]2CC[C@]1(O)C3 | 20 (≈ 62.4 µM)
C[C@@H]1C[C@]23CC[C@@H]4[C@](C)(CCC[C@]4(C)C(=O)O)[C@H]2CC[C@@]1(OC(=O)CCCCCCC(=O)O[C@]12CC[C@@H]4[C@](CC[C@H]5[C@@]4(C)CCC[C@@]5(C)C(=O)O)(C[C@@H]1C)C2)C3 | 20 (≈ 25.7 µM)
C[C@@H]1C[C@]23CC[C@@H]4[C@](C)(CCC[C@]4(C)C(=O)O)[C@H]2CC[C@@]1(OC(=O)CCCCCCCCC(=O)O[C@]12CC[C@@H]4[C@](CC[C@H]5[C@@]4(C)CCC[C@@]5(C)C(=O)O)(C[C@@H]1C)C2)C3 | 20 (≈ 24.8 µM)
C[C@@H]1C[C@]23CC[C@@H]4[C@]5(C)CCC[C@]4(C)C(=O)OC(=O)[C@]4(C)CCC[C@@]6(C)[C@@H]7CC[C@@]8(C[C@@]7(CC[C@@H]64)C[C@@H]8C)OC(=O)CCCCCCCCC(=O)O[C@]1(CC[C@@H]25)C3 | 5 (≈ 6.34 µM)
